Measurements published in BindingDB's records for doi:10.1038/nchembio.307 (Harvard Medical School, 2010).
pIC50: −log10 of the molar value.

The compounds below were run against T1, Amine oxidase [flavin-containing] B (Homo sapiens, UniProt P27338) (assay: MAO-B Enzymatic Assay).
T1 sequence (P27338 whole entry): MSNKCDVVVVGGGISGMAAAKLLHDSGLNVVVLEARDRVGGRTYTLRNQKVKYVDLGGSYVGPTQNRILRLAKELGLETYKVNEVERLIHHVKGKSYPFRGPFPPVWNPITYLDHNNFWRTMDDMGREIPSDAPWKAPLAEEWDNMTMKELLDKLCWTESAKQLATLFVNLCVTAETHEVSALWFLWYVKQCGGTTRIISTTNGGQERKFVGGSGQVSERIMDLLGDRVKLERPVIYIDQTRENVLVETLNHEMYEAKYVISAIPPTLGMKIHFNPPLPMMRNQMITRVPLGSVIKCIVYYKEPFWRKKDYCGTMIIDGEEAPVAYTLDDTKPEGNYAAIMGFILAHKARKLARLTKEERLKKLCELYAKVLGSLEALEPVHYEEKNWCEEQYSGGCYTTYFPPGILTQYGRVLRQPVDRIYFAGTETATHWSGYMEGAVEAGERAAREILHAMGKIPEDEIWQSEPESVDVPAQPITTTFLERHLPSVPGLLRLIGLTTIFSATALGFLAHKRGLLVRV
Source text: Momoamine oxidase type B(MAO-B) activity in vitro assay using molecules that caused a photomotor response (PMR) "magnitude stimulant' (MAG) phenotype characterized by increased PMR excitation magnitude.

SMILES | pIC50
CC(C)(C)OC(=O)NCCC(=O)Oc1ccc(C(=O)Oc2ccc3c4c(c(=O)oc3c2)CCC4)cc1Cl [MAG-3] | 6.00
CC(C)(C)OC(=O)NCCC(=O)Oc1ccc(C(=O)Oc2ccc3c4c(c(=O)oc3c2)CCCC4)cc1Cl [MAG-5] | 5.00
O=C(CNC(=O)OCc1ccccc1)Oc1ccc(C(=O)Oc2ccc3c4c(c(=O)oc3c2)CCC4)cc1Cl [MAG-6] | 5.00
CC(C)(C)OC(=O)NCC(=O)Oc1ccc(C(=O)Oc2ccc3c4c(c(=O)oc3c2)CCC4)cc1Cl [MAG-7] | 6.30
